The values below come from patent US5169863A, “Hypersphyxia-causing methods” (K.K. Ueno Seiyaku Oyo Kenkyujo, priority 1988, dated 1992).

A short description of experiment [1]: changing rate of blood pressure and heart rate by intravenous injection in anesthetized rats. The conditions noted are these: for change in vivo at 1 mg/kg: Rattus norvegicus; for changing rate (%) of blood pressure / changing rate (%) of heart rate: Table 2. Type of experiment: in vivo, Wister male rats. How it is done:
(blood pressure, heart rate increasing action by intravenous injection) Wister male rats (8 weeks old) were used as test animals. The rats were applied to anesthesia by intraperitoneal administration with 1.25 g/kg of urethane. The blood pressure was determined by inserting a polyethylene tube into a femoral artery, which was connected with a pressure transducer. The heart rate was determined from R wave of electrocardiograms (ECG) induced by standard limb lead II with a tachometer. Each test compound was dissolved in ethanol and intravenously administered to rats in 1 mg/kg diluted with Ringer's solution just before use. The maximum concentration of ethanol was 2 percent. An ethanol-containing Ringer without any test compound was used as a control to confirm the influence of the ethanol in each experiment. Each changing rate (%) in the blood pressure and heart rate before and after administration was determined, and the average of 3-4 experiments was shown in Table 1. Changing rates of blood pressure and heart rate were determined in the same manner as described in Example 1 except that the test compounds 60, 61 and 62 were used in different concentrations instead of the test compounds 1-55.

Experiment [2] is described as follows: progressing a breath (change rate of breath rate). Type of experiment: in vivo, Wister male rats. Particulars: Rattus norvegicus, iv, tail vein, rats. The method, then: Wister male rats (8 weeks old) were applied to anesthesia by intraperitoneal administration with 1.25 g/kg of urethane. A pick-up for breath was fixed on a top of a rat's nose, and the breath curve was recorded on a polygraph while the breath rate was counted with a tachometer.
Each test compound was dissolved in ethanol and administered to rats through a tale vein in 1 mg/kg as diluted with Ringer's solution just before use. The maximum concentration of ethanol was 2 percent. Ringers solution containing ethanol but not containing test compound was administered at every experiment as a control. The change rates (%) of the breath rate before and after administration were determined, and evaluated as progressing activity of breath.

[3] abbreviates: Table 1, read-out: changing rate of blood pressure.
The mark [4] stands for this setting: Table 1, read-out: changing rate of heart rate.

Consider `CCCCCC(=O)CC[C@H]1[C@H](O)CC(=O)[C@@H]1CC(=O)CCCCC(=O)OCC` (relative stereo) [Compound 8, (±) 13,14-dihydro-6,15-diketo-PGE1 ethyl ester], for which the figures for the change in vivo at 1 mg/kg in experiment [1] (setting [3]) and in experiment [2] were 8% and 65%, respectively.

`CCCCCC(=O)CC[C@H]1[C@H](O)CC(=O)[C@@H]1CCCCCCC(=O)O` [Compound 1, 13,14-dihydro-15-keto-PGE1, reference compound]: the results for the change in vivo at 1 mg/kg in experiment [1] (setting [3]), in experiment [1] (setting [4]) and in experiment [2] were -6%, 6% and 34%, respectively.

For the molecule `CCCCCC(=O)CC[C@H]1[C@H](O)CC(=O)[C@@H]1CCCCC=CC(=O)OC` [Compound 3, 13,14-dihydro-15-keto-Δ^2 -PGE1 methyl ester], the change in vivo at 1 mg/kg in experiment [1] (setting [3]) stood at 32%; in experiment [1] (setting [4]) it was 43%.

As for `CCCCCCCC(=O)CC[C@H]1[C@H](O)CC(=O)[C@@H]1CCCCCCC(=O)OC` [Compound 4, 13,14-dihydro-15-keto-20-ethyl-PGE1 methy ester], the change in vivo at 1 mg/kg was found to be 6% in experiment [1] (setting [3]), 33% in experiment [1] (setting [4]) and 48% in experiment [2].

`CCCCCC(=O)CC[C@H]1[C@H](O)CC(=O)[C@@H]1CC(=O)CCCCC(=O)O` [Compound 5, 13,14-dihydro-6,15-diketo-PGE1, reference compound]: the change in vivo at 1 mg/kg in experiment [1] (setting [3]) is -4%; in experiment [1] (setting [4]), 0%; in experiment [2], 4%.

As for `CCCCCC(=O)CC[C@H]1[C@H](O)CC(=O)[C@@H]1CC(=O)CCCCC(=O)OC` [Compound 6, 13,14-dihydro-6,15-diketo-PGE1 methyl ester], the change in vivo at 1 mg/kg was 3% in experiment [1] (setting [3]), 9% in experiment [1] (setting [4]) and 21% in experiment [2].

`CCCCCC(=O)CC[C@H]1[C@H](O)CC(=O)[C@@H]1CC(=O)CCCCC(=O)OCCCC` [Compound 9, 13,14-dihydro-6,15-diketo-PGE1 n-butyl ester]: the change in vivo at 1 mg/kg worked out at 2% in experiment [1] (setting [3]), 26% in experiment [1] (setting [4]) and 26% in experiment [2].

Take `CCCCC(C)C(=O)CC[C@H]1[C@H](O)CC(=O)[C@@H]1CC(=O)CCCCC(=O)OC` (stereo partly shown) [Compound 10, 13,14-dihydro-6,15-diketo-16R,S-methyl-PGE1 methyl ester]: the change in vivo at 1 mg/kg worked out at 22% in experiment [1] (setting [3]), 37% in experiment [1] (setting [4]) and 63% in experiment [2].

For `CCCCC(C)C(=O)CC[C@H]1[C@H](O)CC(=O)[C@@H]1CC(=O)CCCCC(=O)OCC` (stereo partly shown) [Compound 11, 13,14-dihydro-6,15-diketo-16R,S-methyl-PGE1 ethyl ester], the change in vivo at 1 mg/kg in experiment [1] (setting [3]) was 23%; in experiment [1] (setting [4]) it was 18%; in experiment [2] it was 34%.

For the molecule `CCCCC(C)(C)C(=O)CC[C@H]1[C@H](O)CC(=O)[C@@H]1CC(=O)CCCCC(=O)OCC` [Compound 12, 13,14-dihydro-6,15-diketo-16,16-dimethyl-PGE1 ethyl ester], the figures for the change in vivo at 1 mg/kg in experiment [1] (setting [3]), in experiment [1] (setting [4]) and in experiment [2] were 17%, 38% and 44%, respectively.

With `CCCCC(F)C(=O)CC[C@H]1[C@H](O)CC(=O)[C@@H]1CC(=O)CCCCC(=O)OCC` (stereo partly shown) [Compound 13, 13,14-dihydro-6,15-diketo-16R,S-fluoro-PGE1 ethyl ester], the change in vivo at 1 mg/kg in experiment [1] (setting [3]) amounted to 11%; in experiment [1] (setting [4]), 20%; in experiment [2], 53%.

For `COC(=O)CCCCC(=O)C[C@H]1C(=O)C[C@@H](O)[C@@H]1CCC(=O)CCCC(C)C` [Compound 14, 13,14-dihydro-6,15-diketo-19-methyl-PGE1 methyl ester], the change in vivo at 1 mg/kg in experiment [1] (setting [3]) came out at 12%; in experiment [1] (setting [4]), 22%; in experiment [2], 33%.

In the case of `COC(=O)CCCCC(=O)C[C@H]1C(=O)C[C@@H](CO)[C@@H]1CCC(=O)CCCC(C)C` [Compound 16, 13,14-dihydro-6,15-diketo-11-dehydroxy-11R-hydroxymethyl-19-methyl-PGE1 methyl ester], the figures for the change in vivo at 1 mg/kg in experiment [1] (setting [3]) and in experiment [1] (setting [4]) were 26% and 25%, respectively.

On to `CCCCCC(=O)CC[C@H]1[C@H](C)CC(=O)[C@@H]1CC(=O)CCCCC(=O)OC` [Compound 17, 13,14-dihydro-6,15-diketo-11-dehydroxy-11R-methyl-PGE1 methyl ester], for which the results for the change in vivo at 1 mg/kg in experiment [1] (setting [3]) and in experiment [1] (setting [4]) were 46% and 58%, respectively.

As for `CCCCC(F)C(=O)CC[C@H]1[C@H](C)CC(=O)[C@@H]1CC(=O)CCCCC(=O)OCC` (stereo partly drawn) [Compound 19, 13,14-dihydro-6,15-diketo-16R,S-fluoro-11R-dehydroxy-11R-methyl-PGE1 ethyl ester], the change in vivo at 1 mg/kg came to 45% in experiment [1] (setting [3]) and 51% in experiment [1] (setting [4]).

On to `CCCCCC(=O)CC[C@H]1[C@H](O)CC(=O)[C@@H]1C/C=C\CCCC(=O)O` [Compound 20, 13,14-dihydro-15-keto-PGE2, reference compound], for which the “blood pressure effect (in words)” value in experiment [1] (Example 1 conclusion) is reported as “blood pressure decreasing effect”. Further, the change in vivo at 1 mg/kg in experiment [1] (setting [3]) is -15%; in experiment [1] (setting [4]) it was 0%; in experiment [2] it was 12%.

Take `CCCCCC(=O)CC[C@H]1[C@H](O)CC(=O)[C@@H]1C/C=C\CCCC(=O)OCCC` [Compound 23, 13,14-dihydro-15-keto-PGE2 n-propyl ester]: the change in vivo at 1 mg/kg in experiment [1] (setting [3]) turned out to be 5%; in experiment [1] (setting [4]) it was 4%; in experiment [2] it was 37%.

As to `CCCCCC(=O)CC[C@H]1[C@H](O)CC(=O)[C@@H]1C/C=C\CCCC(=O)OCCCC` [Compound 24, 13,14-dihydro-15-keto-PGE2 n-butyl ester], the values for the change in vivo at 1 mg/kg in experiment [1] (setting [3]), in experiment [1] (setting [4]) and in experiment [2] were 5%, 5% and 41%, respectively.

For `CCCCCC(F)C(=O)CC[C@H]1[C@H](O)CC(=O)[C@@H]1C/C=C\CCCC(=O)OC` (stereo partly shown) [Compound 39, 13,14-dihydro-15-keto-16R,S-fluoro-20-methylPGE2 methyl ester], the change in vivo at 1 mg/kg in experiment [1] (setting [3]) was 20%; in experiment [1] (setting [4]), 47%.

Consider `COCCCCC(C)(C)C(=O)CC[C@H]1[C@H](O)CC(=O)[C@@H]1C/C=C\CCCC(=O)OC` [Compound 48, 13,14-dihydro-15-keto-16,16-dimethyl-20-methoxy-PGE2 methyl ester], for which the change in vivo at 1 mg/kg in experiment [1] (setting [3]) is 15%; in experiment [1] (setting [4]) it was 30%.

Take `CCCCCCCC(=O)CC[C@H]1[C@H](O)CC(=O)[C@@H]1C/C=C\CCCC(=O)OCC` [Compound 52, 13,14-dihydro-15-keto-20-ethyl-PGE2 ethyl ester]: the change in vivo at 1 mg/kg came to 13% in experiment [1] (setting [3]) and 0% in experiment [1] (setting [4]).

As for `CCCCCCCC(=O)CC[C@H]1[C@H](C)CC(=O)[C@@H]1C/C=C\CCCC(=O)OC` [Compound 53, 13,14-dihydro-15-keto-20-ethyl-11-dehydroxy-11R-methyl-PGE2 methyl ester], the figures for the change in vivo at 1 mg/kg in experiment [1] (setting [3]) and in experiment [1] (setting [4]) were 17% and 20%, respectively.

Regarding `CCCCCCCCC(=O)CC[C@H]1[C@H](O)CC(=O)[C@@H]1C/C=C\CCCC(=O)OC` [Compound 54, 13,14-dihydro-15-keto-20-n-propyl-PGE2 methyl ester], the change in vivo at 1 mg/kg in experiment [1] (setting [3]) and in experiment [1] (setting [4]) was 18% in each case.

Consider `CCCCC(F)C(=O)/C=C/[C@H]1[C@H](O)CC(=O)[C@@H]1C/C=C\CCCC(=O)OC` (stereo partly shown) [Compound 55, 15-keto-16R,S-fluoro-PGE2 methyl ester], for which the change in vivo at 1 mg/kg in experiment [1] (setting [3]) worked out at 31%; in experiment [1] (setting [4]), 58%.

As for `CCCCC[C@H](O)/C=C/[C@H]1[C@H](O)CC(=O)[C@@H]1CCCCCCC(=O)O` [Compound 56, PGE1, reference compound], the figures for the change in vivo at 1 mg/kg in experiment [1] (setting [3]) and in experiment [1] (setting [4]) were -54% and 10%, respectively.

`CCCCCCC(=O)CC[C@H]1[C@H](O)CC(=O)[C@@H]1CCCCCCC(=O)OC` [Compound 60, 13,14-dihydro-15-keto-20-methyl-PGE1 methyl ester]: in experiment [1] (0.1 mg/kg), the “changing rate (%) of blood pressure” value is “+17%” and the “changing rate (%) of heart rate” value is “+14%”. In experiment [1] (1 mg/kg), the “changing rate (%) of blood pressure” value is given as “+13%” and the “changing rate (%) of heart rate” value is listed as “+38%”.

For `CCCCC(F)(F)C(=O)CC[C@H]1[C@H](O)CC(=O)[C@@H]1C/C=C\CCCC(=O)OC` [Compound 61, 13,14-dihydro-15-keto-16,16-difluoro-PGE2 methyl ester], the “changing rate (%) of blood pressure” value is given as “+13%” in experiment [1] (0.01 mg/kg), “+15%” in experiment [1] (0.1 mg/kg) and “+27%” in experiment [1] (1 mg/kg). Moreover, the “changing rate (%) of heart rate” value in experiment [1] (0.01 mg/kg) was “+14%”; in experiment [1] (0.1 mg/kg), “+30%”; in experiment [1] (1 mg/kg), “+26%”.

Regarding `CCOC(=O)CCCCC(=O)C[C@H]1C(=O)C[C@@H](O)[C@@H]1CCC(=O)CCC(C)CC` (stereo partly shown) [Compound 62, 13,14-dihydro-6,15-diketo-18-methyl-PGE1 ethyl ester], the “changing rate (%) of heart rate” value in experiment [1] (0.1 mg/kg) is recorded as “+6%”; in experiment [1] (1 mg/kg), “+13%”.
